Results on 22 molecules are retold here after patent US20180362587A1, “Compositions and Methods for Inhibiting CBP80 Binding to PGC1 Family of Co-Activators” (University of Rochester, priority 2015, published 2018).

Square brackets hold non-standard residues; d marks the D form. Peptide text beside a SMILES is read from it. * marks the point of attachment. Crotonyl(E) = C/C=C/C(=O)*; Dab = NCC[C@H](N)C(=O)O; Aib = CC(C)(N)C(=O)O

To fix the notation:
T1: CBP80/CBP20 complex (Homo sapiens, UniProt Q09161)
T1 sequence (Q09161 1-790): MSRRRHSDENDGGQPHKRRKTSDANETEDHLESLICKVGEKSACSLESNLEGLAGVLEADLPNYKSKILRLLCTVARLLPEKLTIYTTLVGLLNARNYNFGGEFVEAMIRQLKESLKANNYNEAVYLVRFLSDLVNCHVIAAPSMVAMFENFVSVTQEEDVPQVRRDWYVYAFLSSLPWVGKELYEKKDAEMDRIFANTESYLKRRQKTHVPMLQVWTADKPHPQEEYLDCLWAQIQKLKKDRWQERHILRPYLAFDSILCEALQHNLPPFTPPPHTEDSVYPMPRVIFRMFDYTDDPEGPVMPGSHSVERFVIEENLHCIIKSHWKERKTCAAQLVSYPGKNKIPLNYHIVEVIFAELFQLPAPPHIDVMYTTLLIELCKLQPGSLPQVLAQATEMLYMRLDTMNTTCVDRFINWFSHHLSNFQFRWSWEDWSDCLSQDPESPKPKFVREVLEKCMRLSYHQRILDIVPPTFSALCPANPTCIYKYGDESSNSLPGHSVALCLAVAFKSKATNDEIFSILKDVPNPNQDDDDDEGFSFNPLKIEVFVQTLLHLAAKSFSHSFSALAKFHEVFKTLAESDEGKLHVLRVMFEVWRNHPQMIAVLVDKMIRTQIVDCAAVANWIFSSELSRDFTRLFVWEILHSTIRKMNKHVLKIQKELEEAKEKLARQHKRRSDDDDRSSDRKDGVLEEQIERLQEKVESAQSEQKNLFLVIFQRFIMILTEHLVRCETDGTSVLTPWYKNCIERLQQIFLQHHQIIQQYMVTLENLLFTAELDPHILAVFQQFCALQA
T1 sequence (P52298 1-156 partner): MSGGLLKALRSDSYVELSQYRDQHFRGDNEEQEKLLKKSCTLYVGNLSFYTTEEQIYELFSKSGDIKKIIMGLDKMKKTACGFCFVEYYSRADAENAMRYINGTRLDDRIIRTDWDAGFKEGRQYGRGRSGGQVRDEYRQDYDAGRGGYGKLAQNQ

T2: CBP80/CBP20 complex (human, UniProt Q09161 20-790; P52298 1-156, limits assumed)
T2 construct: Used in the fluorescence polarization assays; In the crystal it also carried the cap analogue (m7GpppG / m7GpppA); also called CBC complex; CBC
T2 sequence (looked up) 1: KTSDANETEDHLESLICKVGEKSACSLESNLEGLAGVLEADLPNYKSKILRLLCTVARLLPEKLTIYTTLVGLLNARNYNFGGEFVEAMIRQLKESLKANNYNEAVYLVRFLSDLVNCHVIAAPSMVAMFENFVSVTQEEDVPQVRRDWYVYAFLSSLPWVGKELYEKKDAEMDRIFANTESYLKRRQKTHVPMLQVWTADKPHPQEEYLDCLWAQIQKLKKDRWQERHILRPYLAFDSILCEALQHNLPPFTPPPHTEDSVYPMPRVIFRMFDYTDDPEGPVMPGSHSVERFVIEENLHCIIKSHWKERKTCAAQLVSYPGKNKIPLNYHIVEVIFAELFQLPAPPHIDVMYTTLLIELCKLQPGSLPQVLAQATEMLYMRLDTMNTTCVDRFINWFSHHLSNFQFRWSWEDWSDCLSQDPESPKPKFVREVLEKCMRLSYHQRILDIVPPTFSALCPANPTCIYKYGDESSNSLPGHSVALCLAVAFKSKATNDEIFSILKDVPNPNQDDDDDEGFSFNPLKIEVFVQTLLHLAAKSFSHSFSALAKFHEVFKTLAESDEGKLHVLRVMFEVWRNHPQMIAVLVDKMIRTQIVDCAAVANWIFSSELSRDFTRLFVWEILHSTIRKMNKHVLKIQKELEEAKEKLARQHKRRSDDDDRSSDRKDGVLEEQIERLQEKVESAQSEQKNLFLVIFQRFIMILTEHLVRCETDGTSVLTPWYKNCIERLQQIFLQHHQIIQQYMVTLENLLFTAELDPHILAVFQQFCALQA
T2 sequence (looked up) 2: T1 sequence (P52298 1-156 partner)

B1: PGC1β-19 (Ac-MDFDSLLKEAQQSRRRRRRRR-NH2) (peptide)
peptide: Ac-MDFDSLLKEAQQSRRRRRRRR-NH2
B2: PRC-Cterm (Ac-SLDFDDLLKQAQKNLRR-NH2) (peptide)
peptide: Ac-SLDFDDLLKQAQKNLRR-NH2
B3: PGC1β-2A (Ac-MAFDSLLKEAQQS-NH2) (peptide)
peptide: Ac-MAFDSLLKEAQQS-NH2
B4: PGC1β-12A (Ac-MDFDSLLKEAQAS-NH2) (peptide)
peptide: Ac-MDFDSLLKEAQAS-NH2
B5: PGC1β-8A (Ac-MDFDSLLAEAQQS-NH2) (peptide)
peptide: Ac-MDFDSLLAEAQQS-NH2
B6: PGC1α-Cterm (Ac-SLDFDSLLKEAQRSLRR-NH2) (peptide)
peptide: Ac-SLDFDSLLKEAQRSLRR-NH2
B7: PGC1β-Cterm (Ac-AMDFDSLLKEAQQSLH-NH2) (peptide)
peptide: Ac-AMDFDSLLKEAQQSLH-NH2
notes: also called PGC1β-Cterm peptide; unlabeled version of the PGC1β peptide

The target of the first test is T1, CBP80/CBP20 complex. Nature of the test: fluorescence polarization based competition assay (displacement of FITC-labeled PGC1β peptide). The settings on record: 1 μM FITC-labeled PGC1β (FITC-Ahx-AMDFDSLLKEAQQSLH-NH2), 30 μM CBP80/CBP20 complex, HEPES buffer pH 7.5. Type of test: binding. As to the method: The ability of α-MOrPHs to disrupt the PGC1β-CBP80 interaction will be assessed and quantified via a fluorescence polarization-based competition assay, in which disruption of the complex formed between a fluorescein-conjugated PGC1β peptide and CBP80 is measured upon adding increasing concentrations of each inhibitory α-MOrPH (FIG. 5A). […] Initially, the length of the linker in the inhibitory α-MOrPH will be optimized for maximal activity toward disrupting the PGC1β-CBP80 interaction (e.g. using SP1-3, FIG. 4).
(§1) The relative activity of the PGC1β mimics toward disrupting the interaction between CBC and the fluorescein-conjugated PGC1β-derived peptide was measured in a competition assay. Briefly, a fixed amount of CBC and fluorescein-conjugated PGC1β-derived peptide are incubated with increasing amounts of the PGC1β mimic (FIG. 11A). From the resulting dose-dependent inhibition curves, the in vitro CBC inhibitory activity of the PGC1β mimic compound is measured based on their respective half-maximal inhibitory concentration (IC50) (FIG. 5B). Using this assay, various PGC1β mimics were evaluated for their relative ability to target CBC and disrupt its binding interaction with PGC1β. […] Short peptides derived from the C-terminal domain of PGC1β and PRC proteins, two other members of the PGC1 family of transcriptional coactivators, were also to bind CBC and inhibits its interaction with the fluorescein-labeled PGC1β peptide with IC50 values in the low micromolar range.
IC50 values were determined by adapting the fluorescence polarization assay described above to a competition format. 1 μM of the FITC-labeled PGC1β peptide (FITC-Ahx-AMDFDSLLKEAQQSLH-NH2) was incubated with 30 μM of the CBP80-CBP20 complex in HEPES Buffer (10 mM HEPES [pH 7.5], 50 mM NaCl and 5 mM 2-mercaptoethanol). The inhibitory peptide was added to the solution at varying concentrations, typically ranging from 1 to 200 μM. Half-maximal inhibitory concentration (IC50) values were calculated from the resulting inhibition curves as given by dose-dependent decrease in the fluorescence polarization signal. All measurements were performed at least in duplicates.
Consider “Ac-MAFDSLLKNAAAS-NH2 [PGC1β-13, Ac-MAFDSLLKNAAAS-NH2]”, for which the IC50 was < 100 µM.
In the case of “Ac-MAFDSLLKNAAQS-NH2 [PGC1β-14, Ac-MAFDSLLKNAAQS-NH2]”, the IC50 is < 100 µM.
Still for that read-out and setting: next, “Ac-MAFDSLLKAAQQS-NH2 [PGC1β-15, Ac-MAFDSLLKAAQQS-NH2]”: < 100 µM; `CSCC[C@H](NC(C)=O)C(=O)N[C@@H](C)C(=O)N[C@@H](Cc1ccccc1)C(=O)N[C@@H](CC(=O)O)C(=O)N[C@@H](CO)C(=O)N[C@@H](CC(C)C)C(=O)N[C@@H](CC(C)C)C(=O)N[C@@H](CCCCN)C(=O)NC(C)(C)C(=O)N[C@@H](C)C(=O)N[C@@H](CCC(N)=O)C(=O)N[C@@H](CCC(N)=O)C(=O)N[C@@H](CO)C(N)=O` [PGC1β-16, Ac-MAFDSLLK(Aib)AQQS-NH2] (Ac-MAFDSLLK[Aib]AQQS-NH2): < 100 µM; “Ac-MDFASLLKEAQQS-NH2 [PGC1β-4A, Ac-MDFASLLKEAQQS-NH2]”: > 200 µM.
On to “Ac-MDFDSLLKEGQQS-NH2 [PGC1β-10A, Ac-MDFDSLLKEGQQS-NH2]”, for which the IC50 was > 200 µM.
Still for that read-out and setting: next, “Ac-MAFDSMLKAAQQS-NH2 [PGC1β-17, Ac-MAFDSMLKAAQQS-NH2]”: < 100 µM; “Ac-MDFDSLAKEAQQS-NH2 [PGC1β-7A, Ac-MDFDSLAKEAQQS-NH2]”: > 200 µM.
Same read-out and setting: next, `C/C=C/C(=O)NCC[C@H](NC(=O)[C@H](CC(C)C)NC(=O)[C@H](CC(C)C)NC(=O)[C@H](CO)NC(=O)[C@H](CC(=O)O)NC(=O)[C@H](Cc1ccccc1)NC(=O)[C@H](CC(=O)O)NC(=O)[C@H](CCSC)NC(C)=O)C(=O)N[C@@H](CCC(=O)O)C(=O)N[C@@H](C)C(=O)N[C@@H](CCC(N)=O)C(=O)N[C@@H](CCC(N)=O)C(=O)N[C@@H](CO)C(N)=O` [PGC1β-18, Ac-MDFDSLL(CrtDab)EAQQS-NH2] (Ac-MDFDSLL[Dab](Crotonyl(E))EAQQS-NH2): < 100 µM.
Same read-out and setting: to “Ac-MDFDSLLKEAAQS-NH2 [PGC1β-11A, Ac-MDFDSLLKEAAQS-NH2]” belongs 64 ± 2 µM.
For “Ac-MDFDSALKEAQQS-NH2 [PGC1β-6A, Ac-MDFDSALKEAQQS-NH2]”, the IC50 is > 200 µM.
Still for that read-out and setting: to “Ac-MDFDSLLKEAQQS-NH2 [PGC1β-wt, Ac-MDFDSLLKEAQQS-NH2]” belongs 69 µM.
Same read-out and setting: to “Ac-AMDFDSLLKEAQQSLH-NH2 [PGC1β-Cterm, Ac-AMDFDSLLKEAQQSLH-NH2]” belongs ~35 µM; to “Ac-MDFDALLKEAQQS-NH2 [PGC1β-5A, Ac-MDFDALLKEAQQS-NH2]”, 64 ± 2 µM; to “Ac-MDADSLLKEAQQS-NH2 [PGC1β-3A, Ac-MDADSLLKEAQQS-NH2]”, > 200 µM.

In a further test the target is T2, CBP80/CBP20 complex. Nature of the test: FP competition assay; 1 µM FITC-Ahx-…-NH2 as competitor, 30 µM CBP80/CBP20 complex.
Settings: not given
As to the method: as §1, with “(IC₅₀)” for “(IC50)”, “IC₅₀” for “IC50”
^aAc = acetyl; Biot = biotin; Ahx = 6-aminohexanoic acid; Aib = 2-aminoisobutyric acid; CrtDab = N^γ-crotonyl-2,4-diaminobutyric acid. C-terminal ‘-NH₂’ refers to amidated C-terminal end of the peptide. ^bIC₅₀ was determined using fluorescence polarization based competition assay in the presence of 1 μM of FITC-labeled PGC1β (FITC-Ahx-[…]-NH₂, where FITC is fluorescein-isothiocyanate) and 30 μM of the CBP80/CBP20 complex in HEPES buffer (10 mM HEPES, 50 mM NaCl, 5 mM BME, pH 7.5).
IC₅₀ values were determined by adapting the fluorescence polarization assay described above to a competition format. 1 μM of the FITC-labeled PGC1β peptide (FITC-Ahx-[…]-NH₂) was incubated with 30 μM of the CBP80-CBP20 complex in HEPES Buffer (10 mM HEPES [pH 7.5], 50 mM NaCl and 5 mM 2-mercaptoethanol).
B1 showed a half-inhibitory concentration (IC50) of 80 µM. This lies in the double-digit micromolar range.
On the same count and under the same terms, to B2 belongs 93 µM.
In the case of B3, the IC50 was determined as 50 µM. Compared with the last molecule, the IC50 is about 1.9-fold lower.
Still for that read-out and setting: to B4 belongs 56 µM; to B5, 72 µM; to B6, 26 µM.
B7 came in with an IC50 of 32 µM.
